Experimental data taken from US9759709B1, “Devices and methods to monitor HIV-infection in presence of substance of abuse and/or therapeutic agent” (THE FLORIDA INTERNATIONAL UNIVERSITY BOARD OF TRUSTEES, priority 2016, dated 2017).
Counter-ions that a name gives are not always drawn.

What was measured:
Type in all cases: cell-based
human astrocytes (HA) [1] = test: EIS measurement of charge transfer resistance (Rct) of HA grown on IDE-Au cultureware chip
Description: A cultureware chip (CC) comprising eight wells was procured from Applied Biophysics (#8WCP PET arrays) and used to grow HA for HIV infection and subsequent drug treatments. Each well (substrate area of 0.8 cm^2 and maximum volume of 600 μL) of the CC comprised a sensing substrate configured to have gold-based IDE (IDE-Au; surface area: 3.985 mm^2). In each well and on the sensing substrate, the IDE-Au array was useful to grow a large number of cells (e.g., approximately between 4000 and 8000) and designed in such a way to perform electrochemical measurements without fluctuation.
EIS was conducted in 400 μL of 5 mM PBS (pH 7.4) comprising 5 mM Fe (II)/Fe(III) as redox moieties using VMP3, a multi-channel potentiostat/galvanostats obtained from BioLogic Instruments. Each EIS measurement was made in sets of triplet and an average was used for analytical interpretation. Before processing the CC for cell culture, EIS measurement was made on […] each well. […] The cyclic voltammetry (CV) studies were also performed on CC using identical experimental conditions to validate results obtained using EIS.
A portion of the Nyquist plot of cells grown on IDE-Au takes on a semicircle shape at higher frequency that corresponds to the electron-transfer limited process. The […] of this semicircle represents the charge transfer resistance, Rct, of the system. The semicircle is followed by a linear portion of the curve (45° to the axes) corresponding to the diffusion-controlled electron transfer process (Kaushik et al. 2010).
For a biological system, the Rct value […] intra/extracellular cell properties, such as the electrical and physical properties of the HA. As a result, Rct was selected as the parameter for the assessment of HIV infection in HA and on treatments with Coc and drugs specific to both HIV and Coc. The EIS was performed on HA as a function of HIV infection doses which varies from 10 ng/mL to 30 ng/mL (FIG. 2A (b)).
(§1) Primary HA were grown in the eight-well CC plate at a concentration of approximately 8,000 cells and infected with different concentrations (ranging from 10 ng/mL to 30 ng/mL) of HIV-1 using a previously described protocol (Atluri et al. 2013; Eugenin and Berman 2007). Each well was used for a separate treatment.
After overnight infection, unabsorbed virus was washed away using PBS (pH 7.4), and the infected cells were cultured for 5 days in the presence or absence of Coc (1 μM). RA (2 μM) was added to the designated wells (specific to Coc) 2 h before each treatment involving Coc. The optimized dose of Coc selected for this study was 1 μM, which was based on our dose response study for cytotoxicity and HIV infectivity (Roy et al. 2015).
On the 5th day, 100 μg (100 μL of 1 mg/mL) of Tef was added to wells specific to HIV and incubated for 7 days in total. The dose of Tef was selected on the basis of its toxicity and efficacy as reported in our previous publication (Jayant et al. 2015).
To evaluate variations in HIV infection as a function of the Rct value (FIGS. 3A-3D) measured using EIS, an experiment was planned in 9 wells as described in FIGS. 3A-3D.

human astrocytes (HA) [2] = test: MTT cell viability assay; conditions: HA treated with Coc (1 μM), 7 days
Description: The MTT cell viability assay was examined using a modified assay method as described by Rao et al (Kurapati et al. 2012). After 7 days of HIV-infection and/or treatment with an optimum concentration of Coc (1 μM), 6-well plates were given media change with 1 mL of medium. Then, 100 μL of MTT (100 mg MTT/20 ml PBS) was added to each well and the wells were incubated for 3 h at 37° C. Further, one volume of stop mix solution was added to each well. The plates were then rocked for about 2 h and centrifuged.
The optical density of the solubilized formazan was determined spectrophotometrically measuring the absorbance at 550 nm after transferring into the 96-well plate. The optical density of formazan in each well is directly proportional to the cell viability and utilized for calculations.
Considering cell viability as a major factor, HA toxicity was evaluated in terms of cell viability as a function of levels of HIV infection ranging from 10 ng/mL to 30 ng/mL using MTT assay.

HIV-1Ba-L (clade B) = test: p24 antigen estimation by ELISA (level of HIV infection in HA)
Source text: Primary HA were purchased from ScienCell Research Laboratories (Carlsbad, Calif.; Cat. #1800-5) and grown in astrocyte medium purchased from ScienCell Laboratories (Cat. #1801) comprising 2% of fetal bovine serum (ScienCell Cat. #0010), astrocyte growth supplement (ScienCell Cat. #1852), and penicillin/streptomycin (ScienCell Cat. #0503). HIV-1Ba-L (clade B) (NIH AIDS Reagent Program Cat. #510) was obtained through AIDS Research and Reference Reagent Program, Division of AIDS, NIAID, NIH. The Cocaine hydrochloride-Sigma (Cat# C5776), rimcazole dihydrochloride-Tocris (1497, CAS#75859-03-9), and tenofovir disoproxil fumarate-Sigma (1643656; CAS #202138-50-9) were also obtained for this research.
as §1, with “treatment. […]” for “treatment.”
450 μl of undiluted HA culture supernatant was mixed with 50 μL of lysing buffer. […] After incubation, 100 μL of stop solution was added to each well and the optical density of each well was read at 450 nm using a microplate reader (Yndart et al. 2015). […]

`COC(=O)[C@H]1[C@@H](OC(=O)c2ccccc2)C[C@@H]2CC[C@H]1N2C` [Coc, cocaine] gave a Rct (human astrocytes (HA) [1]; HA+Coc (1 μM), normal HA 48) of 21 KS, a Rct (human astrocytes (HA) [1]; HA+HIV+Coc) of 140 KS and a cell viability (human astrocytes (HA) [2]) of about 85%.
With `C[C@@H]1CN(CCCn2c3ccccc3c3ccccc32)C[C@H](C)N1` [RA, rimcazole dihydrochloride] the Rct (human astrocytes (HA) [1]; HA+Coc+RA (2 μM)) was 34 KΩ, the Rct (human astrocytes (HA) [1]; HA+HIV+Coc+RA) was 105 KΩ and the “level of HIV infection (p24 antigen)” value (HIV-1Ba-L (clade B); HIV-infected HA with Coc and RA (2 μM) vs cells treated with HIV and Coc alone) was “not statistically significant”.
In the case of `CC(C)OC(=O)OCOP(=O)(CO[C@H](C)Cn1cnc2c(N)ncnc21)OCOC(=O)OC(C)C.O=C(O)/C=C/C(=O)O` [Tef, tenofovir disoproxil fumarate], the Rct (human astrocytes (HA) [1]; HA+HIV+Coc+Tef) is reported as 93 KS, the Rct (human astrocytes (HA) [1]; HIV-infected HA (20 ng/mL) after Tef, HA+HIV without drug 210) is reported as 150 KΩ and the “level of HIV infection (p24 antigen)” value (HIV-1Ba-L (clade B); HIV-infected HA treated with Tef (100 μg) vs HIV-infected cells alone) is reported as “significant reduction”.
